Measured values published in patent US11858959B2, “Glycyrrhetinic acid derivatives for use in treating hyperkalemia” (ARDELYX, INC., priority 2019, dated 2024).

Biological target: HSD2 (Homo sapiens (Human), UniProt P80365)
Test: HSD2 activity: cortisol level (HTRF) in human descending colon organoid-derived monolayer cultures
Conditions: not given

Chain of HSD2 (P80365 whole entry): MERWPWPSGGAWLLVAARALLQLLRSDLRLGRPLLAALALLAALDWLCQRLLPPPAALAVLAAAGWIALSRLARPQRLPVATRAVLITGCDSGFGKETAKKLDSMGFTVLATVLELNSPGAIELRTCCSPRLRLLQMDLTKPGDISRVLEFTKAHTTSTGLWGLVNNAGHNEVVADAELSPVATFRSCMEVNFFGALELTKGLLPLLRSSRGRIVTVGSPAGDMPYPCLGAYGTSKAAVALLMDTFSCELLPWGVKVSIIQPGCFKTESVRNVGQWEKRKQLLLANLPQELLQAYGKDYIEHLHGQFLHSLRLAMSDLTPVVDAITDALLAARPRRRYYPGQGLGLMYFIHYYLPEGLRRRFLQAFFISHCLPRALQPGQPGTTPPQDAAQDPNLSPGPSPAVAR

Q: `C[C@]1(C(=O)O)CC[C@]2(C)CC[C@]3(C)C(=CC(=O)[C@@H]4[C@@]5(C)CC[C@H](OC(=O)NCCN6CCOCC6)[C@@](C)(C(=O)O)[C@@H]5CC[C@]43C)[C@@H]2C1` [(2S,4aS,6aS,6bR,8aR,9S,10S,12aS,12bR,14bR)-2,4a,6a,6b,9,12a-hexamethyl-10-({[2-(morpholin-4-yl)ethyl]carbamoyl}oxy)-13-oxo-1,2,3,4,4a,5,6,6a,6b,7,8,8a,9,10,11,12,12a,12b,13,14b-icosahydropicene-2,9-dicarboxylic acid] was tested. Which IC50 did it give?
A: > 10 µM

Q: Which IC50 does the source give for `CCC(=O)O[C@H]1CC[C@]2(C)[C@H]3C(=O)C=C4[C@@H]5C[C@@](C)(C(=O)O)CC[C@]5(C)CC[C@@]4(C)[C@]3(C)CC[C@H]2[C@]1(C)N` [(2S,4aS,6aS,6bR,8aR,9S,10S,12aS,12bR,14bR)-9-amino-2,4a,6a,6b,9,12a-hexamethyl-13-oxo-10-(propanoyloxy)-1,2,3,4,4a,5,6,6a,6b,7,8,8a,9,10,11,12,12a,12b,13,14b-icosahydropicene-2-carboxylic acid] here?
A: 0.398 µM

Q: For `C[C@]1(C(=O)O)CC[C@]2(C)CC[C@]3(C)C(=CC(=O)[C@@H]4[C@@]5(C)CC[C@H](O)[C@@](C)(N)[C@@H]5CC[C@]43C)[C@@H]2C1` [(2S,4aS,6aS,6bR,8aR,9S,10S,12aS,12bR,14bR)-9-amino-10-hydroxy-2,4a,6a,6b,9,12a-hexamethyl-13-oxo-1,2,3,4,4a,5,6,6a,6b,7,8,8a,9,10,11,12,12a,12b,13,14b-icosahydropicene-2-carboxylic acid], which IC50 is on record?
A: > 10 µM

Q: `C[C@]1(C(=O)O)CC[C@]2(C)CC[C@]3(C)C(=CC(=O)[C@@H]4[C@@]5(C)CC[C@H](OC(=O)CS(C)(=O)=O)[C@@](C)(C(=O)O)[C@@H]5CC[C@]43C)[C@@H]2C1` [(2S,4aS,6aS,6bR,8aR,9S,10S,12aS,12bR,14bR)-10-[(2-methanesulfonylacetyl)oxy]-2,4a,6a,6b,9,12a-hexamethyl-13-oxo-1,2,3,4,4a,5,6,6a,6b,7,8,8a,9,10,11,12,12a,12b,13,14b-icosahydropicene-2,9-dicarboxylic acid] was tested. Which IC50 did it give?
A: > 10 µM

Q: With `COCC(=O)O[C@H]1CC[C@@]2(C)[C@@H](CC[C@]3(C)[C@@H]2C(=O)C=C2[C@@H]4C[C@@](C)(C(=O)O)CC[C@]4(C)CC[C@]23C)[C@]1(C)C(=O)O` [(2S,4aS,6aS,6bR,8aR,9S,10S,12aS,12bR,14bR)-10-[(2-methoxyacetyl)oxy]-2,4a,6a,6b,9,12a-hexamethyl-13-oxo-1,2,3,4,4a,5,6,6a,6b,7,8,8a,9,10,11,12,12a,12b,13,14b-icosahydropicene-2,9-dicarboxylic acid] as the compound, how does the IC50 read?
A: > 10 µM

Q: Which IC50 does the source give for `COC(=O)N[C@H]1CC[C@@]2(C)[C@@H](CC[C@]3(C)[C@@H]2C(=O)C=C2[C@@H]4C[C@@](C)(C(=O)O)CC[C@]4(C)CC[C@]23C)[C@]1(C)C(=O)O` [(2S,4aS,6aS,6bR,8aR,9S,10S,12aS,12bR,14bR)-10-[(methoxycarbonyl)amino]-2,4a,6a,6b,9,12a-hexamethyl-13-oxo-1,2,3,4,4a,5,6,6a,6b,7,8,8a,9,10,11,12,12a,12b,13,14b-icosahydropicene-2,9-dicarboxylic acid] here?
A: > 10 µM

Q: How did the IC50 turn out when `CN(C)CC(=O)O[C@H]1CC[C@@]2(C)[C@@H](CC[C@]3(C)[C@@H]2C(=O)C=C2[C@@H]4C[C@@](C)(C(=O)O)CC[C@]4(C)CC[C@]23C)[C@]1(C)C(=O)O` [(2S,4aS,6aS,6bR,8aR,9S,10S,12aS,12bR,14bR)-10-{[2-(dimethylamino)acetyl]oxy}-2,4a,6a,6b,9,12a-hexamethyl-13-oxo-1,2,3,4,4a,5,6,6a,6b,7,8,8a,9,10,11,12,12a,12b,13,14b-icosahydropicene-2,9-dicarboxylic acid] was run?
A: > 10 µM

Q: For `C[C@]1(C(=O)O)CC[C@]2(C)CC[C@]3(C)C(=CC(=O)[C@@H]4[C@@]5(C)CC[C@H](O)[C@@](C)(COCC(=O)O)C5CC[C@]43C)[C@@H]2C1` (stereo partly drawn) [(2S,4aS,6aS,6bR,9R,10S,12aS,12bR,14bR)-9-[(carboxymethoxy)methyl]-10-hydroxy-2,4a,6a,6b,9,12a-hexamethyl-13-oxo-1,2,3,4,4a,5,6,6a,6b,7,8,8a,9,10,11,12,12a,12b,13,14b-icosahydropicene-2-carboxylic acid], which IC50 is on record?
A: > 10 µM

Q: `COCO[C@H]1CC[C@@]2(C)[C@@H](CC[C@]3(C)[C@@H]2C(=O)C=C2[C@@H]4C[C@@](C)(C(=O)O)CC[C@]4(C)CC[C@]23C)[C@]1(C)C(=O)OCc1oc(=O)oc1C(C)C` [Compound 258-2, (2S,4aS,6aS,6bR,8aR,9S,10S,12aS,12bR,14bR)-9-(((5-Isopropyl-2-oxo-1,3-dioxol-4-yl)methoxy)carbonyl)-10-(methoxymethoxy)-2,4a,6a,6b,9,12a-hexamethyl-13-oxo-1,2,3,4,4a,5,6,6a,6b,7,8,8a,9,10,11,12,12a,12b,13,14b-icosahydropicene-2-carboxylic Acid] was tested. Which IC50 did it give?
A: 0.126 µM

Q: For `CCC(=O)O[C@H]1CC[C@@]2(C)[C@@H](CC[C@]3(C)[C@@H]2C(=O)C=C2[C@@H]4C[C@@](C)(C(=O)O)CC[C@]4(C)CC[C@]23C)[C@]1(C)NC(=O)OCc1oc(=O)oc1CC` [Compound 318-1, (2S,4aS,6aS,6bR,8aR,9S,10S,12aS,12bR,14bR)-9-((((5-ethyl-2-oxo-1,3-dioxol-4-yl)methoxy)carbonyl)amino)-2,4a,6a,6b,9,12a-hexamethyl-13-oxo-10-(propionyloxy)-1,2,3,4,4a,5,6,6a,6b,7,8,8a,9,10,11,12,12a,12b,13,14b-icosahydropicene-2-carboxylic Acid], which IC50 is on record?
A: 0.0355 µM

Same assay, conditions: HSD2 inhibition in human descending colon cultures; 30 min pre-incubation, then 40 nM cortisol for four hours; cortisol HTRF

Q: With “2-(3-((1-PEG5K-1H-1,2,3-triazol-4-yl)methoxy)-4-nitrobenzyl) 9-((5-methyl-2-oxo-1,3-dioxol-4-yl)methyl)(2S,4aS,6aS,6bR,8aR,9S,10S,12aS,12bR,14bR)-10-((2,5,8,11-tetraoxatetradecan-14-oyl)oxy)-2,4a,6a,6b,9,12a-hexamethyl-13-oxo-1,2,3,4,4a,5,6,6a,6b,7,8,8a,9,10,11,12,12a,12b,13,14b-icosahydropicene-2,9-dicarboxylate [Compound 605-2]” as the compound, how does the pIC50 read?
A: 6.9
